# Entries after “also recorded” stand apart in the source; their conditions may differ. Where a SMILES comes first, the peptide text is derived from it. [ ]: non-standard residue; d: D form. The star is where a group is joined. Dab = NCC[C@H](N)C(=O)O; Hexanoyl = CCCCCC(=O)*
# Legend:
# [1] = tested on: A. baumannii FDA-CDC AR 0037; settings: A. baumannii AR 0037
# [2] = tested on: A. baumannii FDA-CDC AR 0063; assay type: cell-based, Acinetobacter baumannii; settings: FDA-CDC AR 0063, 24 h
# Method: (§1) Bacterial viable counts were determined at 0, 2, 4, 6, and 24 h after antimicrobial treatment. Bacterial surviving counts at 24 h endpoints were subjected to analysis of variance (ANOVA) followed by Tukey's honest significant difference (HSD) tests using SPSS Statistics (version 24; SPSS, Inc., Chicago, Ill., USA).
# [3] = tested on: Escherichia coli ATCC 25922; assay type: cell-based; settings: ATCC 25922
# Method: (§3) The minimum inhibitory concentration (MIC) of paenipeptin analogues was determined using the broth microdilution method (Wirker, M. A. Methods for Dilution Antimicrobial Susceptibility Tests for Bacteria that Grow Aerobically: Approved Standard M07-A8; Clinical and Laboratory Standards Institute, Wayne, Pa., 2009). Seven reference strains (Acinetobacter baumannii ATCC 19606, Escherichia coli ATCC 25922, Klebsiella pneumoniae ATCC 13883, Pseudomonas aeruginosa ATCC 27853, Enterococcus faecium ATCC 19434, Staphylococcus aureus ATCC 29213 and methicillin-resistant S. aureus ATCC 43300) were subjected to MIC testing.
# (§4) Paenipeptin analogues were two-fold diluted in tryptic soy broth (TSB; Becton Dickinson) and mixed with an equal volume of bacterial suspensions in TSB containing approximately 1.5×10^5 colony-forming units (CFU)/mL in a clear UV-sterilized 96-well microtiter plate (NBS, Corning Inc., Corning, N.Y.). […] The microtiter plate was incubated at 37° C. for 18-20 h.
# [4] = tested on: Staphylococcus aureus ATCC 29213; assay type: cell-based; settings: ATCC 29213
# [5] = tested on: Acinetobacter baumannii ATCC 19606; assay type: cell-based; settings: ATCC 19606
# [6] = tested on: A. baumannii FDA-CDC AR 0063; test: Time-kill kinetics in 95% human serum, alone and combined; assay type: cell-based, Acinetobacter baumannii; settings: A. baumannii AR 0063, 24 h
# Method: as §1
# To further test the therapeutic potential of paenipeptin analogues, the time-kill kinetics assays of paenipeptins alone or in combination with other antibiotics were performed in 95% human serum in vitro. Without antimicrobial treatment, the population of A. baumannii FDA-CDC AR 0063 increased from 5.8 log to 9.3 log within 24 h. […] (FIG. 7A).
# [7] = tested on: Klebsiella pneumoniae ATCC 13883; assay type: cell-based; settings: ATCC 13883
# rabbit red blood cells = test: Hemolytic activity; assay type: cell-based; settings: for Hemolysis: relative to Triton X-100
# In short: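 Washed defibrinated rabbit RBCs in PBS pH 7.2 incubated 30 min at 37 °C with paenipeptin analogues at 16–128 μg/mL final. Released hemoglobin read at 415 nm in the supernatant; % hemolysis relative to 0.1% Triton X-100.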
# [8] = tested on: methicillin-resistant S. aureus ATCC 43300; assay type: cell-based, Staphylococcus aureus; settings: ATCC 43300
# [9] = tested on: K. pneumoniae FDA-CDC AR 0034; settings: K. pneumoniae AR 0034
# [10] = tested on: Pseudomonas aeruginosa ATCC 27853; assay type: cell-based; settings: ATCC 27853
# [11] = tested on: Enterococcus faecium ATCC 19434; assay type: cell-based; settings: ATCC 19434
# Method: as §3, §4
# [12] = tested on: A. baumannii FDA-CDC AR 0052; settings: FDA-CDC AR 0052
# [13] = tested on: Klebsiella pneumoniae ATCC 13883; test: MIC of antibiotics with or without paenipeptin analogues (potentiation); assay type: cell-based; settings: K. pneumoniae ATCC 13883
# Source text: (§2) Gram-negative bacteria, including Acinetobacter and Klebsiella, are intrinsically resistant to the hydrophobic antibiotic rifampicin.
# [14] = tested on: Acinetobacter baumannii ATCC 19606; test: as above; assay type: cell-based; settings: A. baumannii ATCC 19606
# Source text: as §2
# [15] = tested on: K. pneumoniae FDA-CDC AR 0068
# Cytotoxicity, MTT assay = assay type: cell-based, human; settings: human, HEK 293 cells
# Method: Cytotoxicity of paenipeptin analogues was determined against a human kidney cell line (HEK 293) using MTT assays (Huang E, Yousef AE. 2014. Paenibacterin, a novel broad-spectrum lipopeptide antibiotic, neutralises endotoxins and promotes survival in a murine model of Pseudomonas aeruginosa-induced sepsis. Int J Antimicrob Agents 44: 74-77). Cell viability was measured at 24 h following the addition of lipopeptides at concentrations between 30-105 μg/ml. The viability of human embryonic kidney cells (HEK 293) decreased with the increase of paenipeptin concentration. The viability of HEK 293 cells in the presence of paenipeptin analogue 1 and 15 at 105 μg/ml was 61% and 67%, respectively (Table 10). The relatively low cytotoxicity of paenipeptin analogue 1 and 15 was correlated with their low hemolytic activity against red blood cells.
# [16] = tested on: K. pneumoniae FDA-CDC AR 0080; settings: K. pneumoniae AR 0080
# [17] = tested on: K. pneumoniae FDA-CDC AR 0097; settings: K. pneumoniae AR 0097
# [18] = tested on: K. pneumoniae FDA-CDC AR0097; test: Time-kill kinetics in 95% human serum, alone and combined; assay type: cell-based, Klebsiella pneumoniae
# Method: as §1
# To further test the therapeutic potential of paenipeptin analogues, the time-kill kinetics assays of paenipeptins alone or in combination with other antibiotics were performed in 95% human serum in vitro.
# [19] = tested on: A. baumannii FDA-CDC AR 0083; settings: A. baumannii AR 0083
# [20] = tested on: A. baumannii FDA-CDC AR 0063; settings: A. baumannii AR 0063
# [21] = tested on: K. pneumoniae FDA-CDC AR 0044
# [22] = tested on: K. pneumoniae FDA-CDC AR 0097; test: Time-kill kinetics in tryptic soy broth, alone and combined; assay type: cell-based, Klebsiella pneumoniae; settings: K. pneumoniae AR 0097; TSB; analogues 4 μg/ml, antibiotics 1 μg/ml
# Method: as §1
# [23] = tested on: K. pneumoniae FDA-CDC AR 0080; test: microbe, parasite or virus in culture; settings: Klebsiella pneumoniae, read-out: MIC alone
# [24] = tested on: K. pneumoniae FDA-CDC AR 0034; test: microbe, parasite or virus in culture; settings: Klebsiella pneumoniae, read-out: MIC alone
# [25] = tested on: A. baumannii FDA-CDC AR 0052; test: microbe, parasite or virus in culture; settings: Acinetobacter baumannii, read-out: MIC alone
# [26] = tested on: A. baumannii FDA-CDC AR 0070; test: microbe, parasite or virus in culture; settings: Acinetobacter baumannii, read-out: MIC alone
# [27] = tested on: A. baumannii FDA-CDC AR 0063; test: microbe, parasite or virus in culture; settings: Acinetobacter baumannii, read-out: MIC alone
# [28] = tested on: K. pneumoniae FDA-CDC AR 0097; test: microbe, parasite or virus in culture; settings: Klebsiella pneumoniae, read-out: MIC alone
# [29] = tested on: A. baumannii FDA-CDC AR 0083; test: microbe, parasite or virus in culture; settings: Acinetobacter baumannii, read-out: MIC alone
# [30] = tested on: K. pneumoniae FDA-CDC AR 0044; test: microbe, parasite or virus in culture; settings: Klebsiella pneumoniae, read-out: MIC alone
# [31] = tested on: K. pneumoniae FDA-CDC AR 0068; test: microbe, parasite or virus in culture; settings: Klebsiella pneumoniae, read-out: MIC alone
# [32] = tested on: A. baumannii FDA-CDC AR 0037; test: microbe, parasite or virus in culture; settings: Acinetobacter baumannii, read-out: MIC alone
# [33] = tested on: Klebsiella pneumoniae AR 0109; settings: K. pneumoniae AR 0109, polymyxin-resistant
# Method: (§5) The minimum inhibitory concentration (MIC) of paenipeptin analogues was determined using the broth microdilution method (Wirker, M. A. Methods for Dilution Antimicrobial Susceptibility Tests for Bacteria that Grow Aerobically: Approved Standard M07-A8; Clinical and Laboratory Standards Institute, Wayne, Pa., 2009).
# as §4
# (§6) There were at least three independent experiments with one replicate in each experiment.
# K. pneumoniae UAMS-KPPR3 = test: MIC, polymyxin-resistant strain; assay type: cell-based, Klebsiella pneumoniae
# Method: as §3, §4, §6
# [34] = tested on: Escherichia coli AR 0494 (mcr-1); settings: E. coli AR 0494, mcr-1, polymyxin-resistant
# Method: as §5, §4, §6
# E. coli UAMS-ECPR1 = settings: E. coli UAMS-ECPR1, polymyxin-resistant
# Method: as §5, §4, §6
# K. pneumoniae UAMS-KPPR1 = test: MIC, polymyxin-resistant strain; assay type: cell-based, Klebsiella pneumoniae
# Method: as §3, §4, §6
# E. coli UAMS-ECPR2 = settings: E. coli UAMS-ECPR2, polymyxin-resistant
# Method: as §5, §4, §6
compound,measurement,setting,value
CCCCCC(=O)N[C@@H](CCN)C(=O)N[C@H](C(=O)N[C@@H](CCN)C(=O)N[C@H](Cc1ccccc1)C(=O)N[C@@H](CC(C)C)C(=O)N[C@@H](CCN)C(=O)N[C@@H](C(=O)N[C@@H](CC(C)C)C(=O)N[C@@H](CO)C(N)=O)C(C)C)[C@@H](C)CC [Analogue 1] (Hexanoyl-[Dab]I[Dab][dF]L[Dab][dV]LS-NH2),MIC of clarithromycin at the presence of PMBN or paenipeptin analogue at 4 μg/ml,[1],0.0313 μg/ml
same,MIC of rifampicin at the presence of PMBN or paenipeptin analogue at 4 μg/ml,[1],0.0039 μg/ml
same,increase in antibiotic activity of clarithromycin,[1]; analogue at 4 μg/mL,512 fold
same,"log reduction, analogue 4 μg/ml in combination with rifampicin 1 μg/ml",[2],4.7-5.1 log
same,MIC,[3],8 to 16 µg/mL
same,MIC,[4],>32 µg/mL
same,MIC,[5],>32 µg/mL
same,"decrease of bacterial population, analogue 4 μg/ml in combination with rifampicin 4 μg/ml",[6],2.7 log
same,"log reduction, analogue 4 μg/ml in combination with clarithromycin 4 μg/ml",[6],1.3 log
same,MIC,[7],≥32 µg/mL
same,Hemolysis,rabbit red blood cells; 16 μg/mL,0.48 ± 0.64%
same,Hemolysis,rabbit red blood cells; 32 μg/mL,0.41 ± 0.58%
same,Hemolysis,rabbit red blood cells; 64 μg/mL,0.08 ± 0.85%
same,hemolytic activity (in words),rabbit red blood cells; 128 μg/mL,little hemolysis; also recorded: nonhemolytic
same,Hemolysis,rabbit red blood cells; 128 μg/mL,0.61 ± 0.25%
same,MIC,[8],>32 µg/mL
same,MIC of clarithromycin at the presence of PMBN or paenipeptin analogue at 4 μg/ml,[9],0.25 μg/ml
same,MIC of rifampicin at the presence of PMBN or paenipeptin analogue at 4 μg/ml,[9],≤0.0019 μg/ml
same,MIC,[10],8 to 16 µg/mL
same,MIC,[11],>32 µg/mL
same,MIC alone,[12],2 to 4 µg/mL
same,MIC of rifampicin at 2 μg/mL of paenipeptin analogue,[13],0.0039 μg/ml
same,MIC of rifampicin at 4 μg/mL of paenipeptin analogue,[13],0.00195 μg/ml
same,MIC of rifampicin at 2 μg/mL of paenipeptin analogue,[14],0.0078-0.0156 μg/ml
same,MIC of rifampicin at 4 μg/mL of paenipeptin analogue,[14],0.00195-0.0039 μg/ml
same,Sensitization factor (rifampicin),[14]; MIC without / with 4 μg/mL paenipeptin,"4,096-8,192"
same,MIC alone,[15]; FDA-CDC AR 0068,>32 µg/mL
same,MIC of clarithromycin at the presence of PMBN or paenipeptin analogue at 4 μg/ml,[15]; K. pneumoniae AR 0068,1 μg/ml
same,MIC of rifampicin at the presence of PMBN or paenipeptin analogue at 4 μg/ml,[15]; K. pneumoniae AR 0068,0.0039-0.0156 μg/ml
same,"viability at 24 h, 30 µg/mL","Cytotoxicity, MTT assay",85.2 ± 10.2%
same,"viability at 24 h, 45 µg/mL","Cytotoxicity, MTT assay",78.4 ± 11.2%
same,"viability at 24 h, 60 µg/mL","Cytotoxicity, MTT assay",78.4 ± 13.5%
same,"viability at 24 h, 75 µg/mL","Cytotoxicity, MTT assay",73.1 ± 11.3%
same,"viability at 24 h, 90 µg/mL","Cytotoxicity, MTT assay",69 ± 8.14%
same,"viability at 24 h, 105 µg/mL","Cytotoxicity, MTT assay",61 ± 6.38%
same,MIC of clarithromycin at the presence of PMBN or paenipeptin analogue at 4 μg/ml,[16],0.0313 μg/ml
same,MIC of rifampicin at the presence of PMBN or paenipeptin analogue at 4 μg/ml,[16],0.0625 μg/ml
same,MIC of clarithromycin at the presence of PMBN or paenipeptin analogue at 4 μg/ml,[17],0.0313-0.0625 μg/ml
same,MIC of rifampicin at the presence of PMBN or paenipeptin analogue at 4 μg/ml,[17],0.0039-0.0078 μg/ml
same,"log reduction, analogue 4 μg/ml in combination with clarithromycin 4 μg/ml",[18]; 24 h,4.9 log
same,"log reduction, analogue 4 μg/ml in combination with rifampicin 4 μg/ml",[18]; 24 h,4.9 log
same,"log inactivation, single agent at 4 μg/ml",[18]; within 24 h,4.2 log
same,MIC of clarithromycin at the presence of PMBN or paenipeptin analogue at 4 μg/ml,[19],16 μg/ml
same,MIC of rifampicin at the presence of PMBN or paenipeptin analogue at 4 μg/ml,[19],0.25-0.5 μg/ml
same,MIC of clarithromycin at the presence of PMBN or paenipeptin analogue at 4 μg/ml,[20],0.0313 μg/ml
same,MIC of rifampicin at the presence of PMBN or paenipeptin analogue at 4 μg/ml,[20],≤0.0019 μg/ml
same,MIC alone,[21]; FDA-CDC AR 0044,16 µg/mL
same,MIC of clarithromycin at the presence of PMBN or paenipeptin analogue at 4 μg/ml,[21]; K. pneumoniae AR 0044,0.0156 μg/ml
same,MIC of rifampicin at the presence of PMBN or paenipeptin analogue at 4 μg/ml,[21]; K. pneumoniae AR 0044,≤0.0019 μg/ml
CC[C@H]1OC(=O)[C@H](C)[C@@H](O[C@H]2C[C@@](C)(OC)[C@@H](O)[C@H](C)O2)[C@H](C)[C@@H](O[C@@H]2O[C@H](C)C[C@H](N(C)C)[C@H]2O)[C@](C)(OC)C[C@@H](C)C(=O)[C@H](C)[C@@H](O)[C@]1(C)O [clarithromycin],"bactericidal activity, single agent (in words)",[22],not bactericidal
same,MIC,[23],> 32 µg/mL
same,MIC,[24],> 32 µg/mL
same,MIC,[25],4 µg/mL
same,MIC,[26],2 to 4 µg/mL
same,MIC,[27],16 to 32 µg/mL
same,MIC,[28],> 32 µg/mL
same,MIC,[29],> 32 µg/mL
same,MIC,[30],> 32 µg/mL
same,MIC,[31],> 32 µg/mL
same,MIC,[32],16 µg/mL
Polymyxin B [reference compound],Minimum inhibitory concentration,[33],16 to 32 µg/mL
same,Minimum inhibitory concentration,K. pneumoniae UAMS-KPPR3,>32 µg/mL
same,Minimum inhibitory concentration,[34],2 to 8 µg/mL
same,Minimum inhibitory concentration,E. coli UAMS-ECPR1,32 µg/mL
same,Minimum inhibitory concentration,K. pneumoniae UAMS-KPPR1,>32 µg/mL
same,Minimum inhibitory concentration,E. coli UAMS-ECPR2,32 µg/mL
